Tests used:
[1] = system: POAAN = Poa annua, annual bluegrass; assay: Field trial of weed control in dormant alfalfa; type: in vivo; conditions: for Control % Visual POAAN: 45 DAAA, POST, NOV/JAN
Description: (§1) A field trial (California) was conducted in field-grown alfalfa using standard herbicide small plot research methodology. Plots were 7.5 ft by 20 ft long with 4 replicates per treatment. The alfalfa crop was already established the previous season and was grown using normal cultural practices for fertilization, seeding, watering, and maintenance to ensure good growth of the crop. All treatments in the field trials were applied using a CO2 backpack sprayer calibrated to apply 187 L/ha spray volume. Commercially available product of penoxsulam was mixed in water at appropriate formulated product rates to achieve the desired rates based on a unit area of application (hectare). Treatments were sprayed as a postemergence application to the soil when alfalfa was in the late dormant stage of growth. “Late dormant” growth stage is defined as when the crop is not actively growing during the winter season and just prior to emerging from dormancy and starting new growth for the growing season. Treatments were rated at 26 to 63 days after the application as compared to the untreated control plants, when the alfalfa crop was no longer dormant. Visual crop injury ratings were scored on a scale of 0 to 100 where 0 corresponds to no injury and 100 corresponds to complete control.

[2] = system: STEME = Stellaria media, chickweed; assay: Field trial of weed control in dormant alfalfa; type: in vivo; conditions: for Control % Visual STEME: 45 DAAA, POST, NOV/JAN
Description: as §1

[3] = system: CAPBP = Capsella bursa-pastoris, Shepherd's purse; assay: Field trial of weed control in dormant alfalfa; type: in vivo; conditions: for Control % Visual CAPBP: 45 DAAA, POST, NOV/JAN
Description: as §1

[4] = system: alfalfa; conditions: in vivo
Description: as §1

[5] = 35 gr ai/ha + AGRI-DEX COC 2.33 liter/ha
[6] = 70 gr ai/ha + AGRI-DEX COC 2.33 liter/ha
[7] = 140 gr ai/ha + AGRI-DEX COC 2.33 liter/ha
[8] = 45DAAA, all rates, burndown and/or residual activity

COc1cnc(OC)n2nc(NS(=O)(=O)c3c(OCC(F)F)cccc3C(F)(F)F)nc12 [PENOXSULAM]
Control % Visual POAAN [1, 5]: 65 b % Visual | Control % Visual POAAN [1, 6]: 79 ab % Visual | Control % Visual POAAN [1, 7]: 91 a % Visual | control of grass weed POAAN (annual bluegrass) ([1]; 45DAAA, dependent on the rate applied): significant suppression/partial control | Control % Visual STEME [2, 5]: 100 a % Visual | Control % Visual STEME [2, 6]: 100 a % Visual | Control % Visual STEME [2, 7]: 100 a % Visual | control of STEME (chickweed) [2, 8]: 100% | Control % Visual CAPBP [3, 5]: 100 a % Visual | Control % Visual CAPBP [3, 6]: 100 a % Visual | Control % Visual CAPBP [3, 7]: 100 a % Visual | control of CAPBP (Sheperd's purse) [3, 8]: 100% | % Visual Injury of alfalfa compared to the Untreated [4]: some slight visual injury | alfalfa growth (% Visual Regrowth) as compared to the Untreated [4]: no effect | alfalfa regrowth as compared to the Untreated [4]: no significant difference

Source: patent US8962528B2, “Penoxsulam as an herbicide in alfalfa” (Dow AgroSciences, LLC., priority 2011, dated 2015)
